Results reported in patent US4364958A, “1-Substituted-3-cycloalkyl-sulfonyl-pyrrolidine-2,5-dione derivatives and fungicidal compositions thereof” (Chinoin Gyogyszer es Vegyeszeti Termekek Gyara Rt., priority 1979, dated 1982).
Values after ≈ are worked out from the molar mass of the structure shown. Read-outs that look alike come from different tables or passages of the source.

Columns and labels:
[1] = system: Candida tropicalis CBS.433; assay: minimal inhibitory concentration in Sabouraud medium; format: cell-based; settings: Candida tropicalis
Text: Candida tropicalis CBS.433 "3"
(§1) As a medium Saboroud medium was employed.

Verticillium albo-atrum = assay: activity against phytopathogenic fungi; format: cell-based
Ascochyta pisi = assay: activity against phytopathogenic fungi; format: cell-based
Venturia = assay: activity against phytopathogenic fungi; format: cell-based
[2] = system: Microsporum gypseum ver. vinosum CBS.10064; assay: minimal inhibitory concentration in Sabouraud medium; format: cell-based; settings: Nannizzia gypsea
Text: Microsporum gypseum ver. vinosum CBS.10064
as §1

[3] = system: Penicillium chrysogenium CCM.F-362; assay: as above; format: cell-based; settings: Penicillium
Text: Penicillium chrysogenium CCM.F-362
as §1

[4] = system: Trichophyton mentagrophytes CBS.50148; assay: as above; format: cell-based; settings: Trichophyton mentagrophytes
Text: Trichophyton mentagrophytes CBS.50148
as §1

Sclerotinia sclerotiorum = assay: activity against phytopathogenic fungi; format: cell-based
[5] = system: Penicillium digitatum CCM.F-382; assay: minimal inhibitory concentration in Sabouraud medium; format: cell-based; settings: Penicillium digitatum
Text: Penicillium digitatum CCM.F-382
as §1

[6] = system: Saccharomyces cerevisiae OKI.1282; assay: as above; format: cell-based; settings: Saccharomyces cerevisiae, OKI.1282, 48 h, 48 hours
Text: Saccharomyces cerevisiae OKI.1282
as §1

Candida albicans CBS.562 = assay: as above; format: cell-based; settings: 48 hours
Text: Candida albicans CBS.562 "2"
as §1

[7] = system: Trichophyton rubrum CBS.30338; assay: as above; format: cell-based; settings: for MIC: Trichophyton rubrum
Text: Trichophyton rubrum CBS.30338
as §1

Verticillium dahlise = assay: activity against phytopathogenic fungi; format: cell-based
[8] = system: Fusarium culmorum DSM.11425; assay: minimal inhibitory concentration in Sabouraud medium; format: cell-based
Text: Fusarium culmorum DSM.11425
as §1

[9] = system: Fusarium graminocorum DSM.11802; assay: as above; format: cell-based
Text: Fusarium graminocorum DSM.11802
as §1

[10] = system: Sporotrichum schenkii CBS.34035; assay: as above; format: cell-based; settings: Sporotrichum
Text: Sporotrichum schenkii CBS.34035
as §1

Taphrina deformans = assay: activity against phytopathogenic fungi; format: cell-based
Phytophtora infestans = format: cell-based
[11] = system: Penicillium digitatum CBS.31948; assay: minimal inhibitory concentration in Sabouraud medium; format: cell-based; settings: Penicillium digitatum
Text: Penicillium digitatum CBS.31948
as §1

Candida krusei 79/K47 = assay: as above; settings: Pichia kudriavzevii, read-out: minimal inhibitory concentration
[12] = system: Aspergillus flavus CBS.24765; assay: as above; format: cell-based; settings: Aspergillus flavus
Text: Aspergillus flavus CBS.24765
as §1

Cercospora beticola = assay: activity against phytopathogenic fungi; format: cell-based
[13] = system: Aspergillus niger CBS.12648; assay: minimal inhibitory concentration in Sabouraud medium; format: cell-based; settings: for MIC: Aspergillus niger
Text: Aspergillus niger CBS.12648
as §1

[14] = system: Epidermophyton floccosum OKI/IV.; assay: as above; format: cell-based; settings: for MIC: Epidermophyton floccosum, read-out: minimal inhibitory concentration
Text: Epidermophyton floccosum OKI/IV.
as §1

[15] = system: Fusarium oxysporum DSM.10975; assay: as above; format: cell-based
Text: Fusarium oxysporum DSM.10975
as §1

[16] = system: Aspergillus fumigatus CBS.11326; assay: as above; format: cell-based; settings: Aspergillus fumigatus
Text: Aspergillus fumigatus CBS.11326
as §1

Botrytis cinerea = assay: activity against phytopathogenic fungi; format: cell-based
[17] = system: Cryptococcus neoform. 78/K16; assay: minimal inhibitory concentration in Sabouraud medium; settings: read-out: minimal inhibitory concentration
[18] = system: Penicillium chrysogenium CBS.19646; assay: as above; format: cell-based; settings: Penicillium
Text: Penicillium chrysogenium CBS.19646
as §1

[19] = system: Aspergillus niger CCM.F-330; assay: as above; format: cell-based; settings: Aspergillus niger
Text: Aspergillus niger CCM.F-330
as §1

[20] = system: Fusarium monoliforme DSM.11778; assay: as above; format: cell-based; settings: Fusarium
Text: Fusarium monoliforme DSM.11778
as §1

In the case of `Cc1ccc(N2C(=O)CC(S(=O)(=O)C3CCCCC3)C2=O)cc1` (centres unmarked), the MIC ([1]; CBS.433, 24 h, 24 hours) is reported as 100 µg/mL (≈ 298 µM), the MIC ([1]; CBS.433, 48 h, 48 hours) is reported as 150 µg/mL (≈ 447 µM) and the “activity against Verticillium albo-atrum” value (Verticillium albo-atrum) is reported as “active”. For the same molecule, the “activity against Ascochyta pisi” value (Ascochyta pisi) was “active”, the “activity against Venturia” value (Venturia) was “active” and the MIC ([2]; 72 h) was 10 µg/mL (≈ 29.8 µM). The MIC ([2]; 144 h) was 25 µg/mL (≈ 74.5 µM), the MIC ([2]; 288 h) was 25 µg/mL (≈ 74.5 µM) and the MIC ([3]; CCM.F362, 72 h, 72 hours) was 75 µg/mL (≈ 224 µM). The MIC ([3]; CCM.F362, 144 h, 144 hours) was 150 µg/mL (≈ 447 µM), the MIC ([3]; CCM.F362, 288 h, 288 hours) was 150 µg/mL (≈ 447 µM) and the MIC ([4]; CBS.50148, 72 h, 72 hours, read-out: minimal inhibitory concentration) was 2.5 µg/mL (≈ 7.45 µM). For the same molecule, the MIC ([4]; CBS.50148, 144 h, 144 hours, read-out: minimal inhibitory concentration) was 2.5 µg/mL (≈ 7.45 µM), the MIC ([4]; CBS.50148, 288 h, 288 hours, read-out: minimal inhibitory concentration) was 5 µg/mL (≈ 14.9 µM) and the MIC ([4]; CBS.50148, read-out: Minimal inhibitory concentration inhibiting the growth) was 2.5 µg/mL (≈ 7.45 µM). For the same molecule, the “activity against Sclerotinia sclerotiorum” value (Sclerotinia sclerotiorum) was “active”, the MIC ([5]; CCM.F382, 72 h, 72 hours) was 25 µg/mL (≈ 74.5 µM) and the MIC ([5]; CCM.F382, 144 h, 144 hours) was 25 µg/mL (≈ 74.5 µM). The MIC ([5]; CCM.F382, 288 h, 288 hours) was 75 µg/mL (≈ 224 µM), the MIC [6] was 25 µg/mL (≈ 74.5 µM) and the minimal inhibitory concentration (Candida albicans CBS.562) was 25 µg/mL (≈ 74.5 µM). The MIC (Candida albicans CBS.562; Candida albicans, CBS.562, 48 h) was 50 µg/mL (≈ 149 µM), the minimal inhibitory concentration ([7]; 144 hours) was 2.5 µg/mL (≈ 7.45 µM) and the minimal inhibitory concentration ([7]; 288 hours) was 2.5 µg/mL (≈ 7.45 µM). For the same molecule, the MIC ([7]; CBS.30338, 144 h, 144 hours) was 5 µg/mL (≈ 14.9 µM), the MIC ([7]; CBS.30338, 288 h, 288 hours) was 5 µg/mL (≈ 14.9 µM) and the “activity against Verticillium dahlise” value (Verticillium dahlise) was “active”. The MIC ([8]; 72 hours) was 75 µg/mL (≈ 224 µM), the MIC ([8]; 144 hours) was 150 µg/mL (≈ 447 µM) and the MIC ([8]; 288 hours) was 150 µg/mL (≈ 447 µM). It also gave an MIC ([9]; 72 hours) of 50 µg/mL (≈ 149 µM), an MIC ([9]; 144 hours) of 50 µg/mL (≈ 149 µM) and an MIC ([9]; 288 hours) of 50 µg/mL (≈ 149 µM). For the same molecule, the MIC ([10]; CBS.34035, 72 h, 72 hours) was 5 µg/mL (≈ 14.9 µM), the MIC ([10]; CBS.34035, 288 h, 288 hours) was 25 µg/mL (≈ 74.5 µM) and the “activity against Taphrina deformans” value (Taphrina deformans) was “active”. For the same molecule, the “activity against Phytophtora infestans” value (Phytophtora infestans) was “active”, the MIC ([11]; CBS.31948, 72 h, 72 hours) was 10 µg/mL (≈ 29.8 µM) and the MIC ([11]; CBS.31948, 144 h, 144 hours) was 10 µg/mL (≈ 29.8 µM). The MIC ([11]; CBS.31948, 288 h, 288 hours) was 10 µg/mL (≈ 29.8 µM), the MIC (Candida krusei 79/K47; 79/K47, 24 h) was 2.5 µg/mL (≈ 7.45 µM) and the MIC (Candida krusei 79/K47; 79/K47, 48 h) was 10 µg/mL (≈ 29.8 µM). The MIC ([12]; CBS.24765, 72 h, 72 hours) was 150 µg/mL (≈ 447 µM), the MIC ([12]; CBS.24765, 144 h, 144 hours) was 250 µg/mL (≈ 745 µM) and the “activity against Cercospora beticola” value (Cercospora beticola) was “active”. For the same molecule, the minimal inhibitory concentration ([13]; 144 hours) was 50 µg/mL (≈ 149 µM), the MIC ([13]; CBS.12648, 72 h, 72 hours) was 25 µg/mL (≈ 74.5 µM) and the MIC ([13]; CBS.12648, 144 h, 144 hours) was 75 µg/mL (≈ 224 µM). For the same molecule, the MIC ([13]; CBS.12648, 288 h, 288 hours) was 75 µg/mL (≈ 224 µM), the minimal inhibitory concentration ([14]; 72 hours) was 2.5 µg/mL (≈ 7.45 µM) and the MIC ([14]; 72 h) was 5 µg/mL (≈ 14.9 µM). The MIC ([14]; 144 h) was 5 µg/mL (≈ 14.9 µM), the MIC ([14]; 288 h) was 5 µg/mL (≈ 14.9 µM) and the MIC ([15]; 72 hours) was 150 µg/mL (≈ 447 µM). It also gave an MIC ([15]; 144 hours) of 200 µg/mL (≈ 596 µM), an MIC ([15]; 288 hours) of 200 µg/mL (≈ 596 µM) and an MIC ([16]; CBS.11326, 72 h, 72 hours) of 50 µg/mL (≈ 149 µM). For the same molecule, the MIC ([16]; CBS.11326, 144 h, 144 hours) was 150 µg/mL (≈ 447 µM), the MIC ([16]; CBS.11326, 288 h, 288 hours) was 150 µg/mL (≈ 447 µM) and the “activity against Botrytis cinerea” value (Botrytis cinerea) was “active”. It also gave an MIC ([17]; 24 h) of 1 µg/mL (≈ 2.98 µM), an MIC ([17]; 48 h) of 10 µg/mL (≈ 29.8 µM) and an MIC ([18]; CBS.19646, 72 h, 72 hours) of 50 µg/mL (≈ 149 µM). For the same molecule, the MIC ([18]; CBS.19646, 144 h, 144 hours) was 75 µg/mL (≈ 224 µM), the MIC ([18]; CBS.19646, 288 h, 288 hours) was 75 µg/mL (≈ 224 µM) and the MIC ([19]; CCM.F330, 72 h, 72 hours) was 100 µg/mL (≈ 298 µM). For the same molecule, the MIC ([19]; CCM.F330, 144 h, 144 hours) was 150 µg/mL (≈ 447 µM), the MIC ([19]; CCM.F330, 288 h, 288 hours) was 250 µg/mL (≈ 745 µM) and the MIC ([20]; DSM.11778, 72 h, 72 hours) was 100 µg/mL (≈ 298 µM). It also gave an MIC ([20]; DSM.11778, 144 h, 144 hours) of 150 µg/mL (≈ 447 µM) and an MIC ([20]; DSM.11778, 288 h, 288 hours) of 150 µg/mL (≈ 447 µM).
